For one experiment, the system named is Hsp72, Hsp27. Nature of the experiment: Heat-shock protein induction in organs after IP administration. In kind it is in vivo, mice. The conditions noted are these: IP 18 mg/kg/day, 16 hours after last injection, FIG. 10. As for the experimental part:
FIG. 10. Heat-shock protein induction following Withaferin A (WA) administration to mice. WA was formulated in DMSO/Cremophor/Saline vehicle and injected intraperitoneally (IP) at a total dose of 18 mg/kg/day, either as a single injection (WA ×1) or divided in two 9 mg/kg injections (WA ×2) spaced 6 hrs apart. Control animals received an equal volume of vehicle alone as a single injection. Mice were sacrificed 16 hours after the last injection, organs harvested and protein lysates prepared for immunoblotting. Equal loading of samples was confirmed by staining membranes for total protein (left panels). The relative tissue levels of Hsp72, Hsp27 and Annexin 2 (a putative target of Withaferin A) were determined by probing with specific antibodies as indicated. Note the robust induction of heat shock protein levels in spleen (Annexin 2 positive), but not normal brain (Annexin 2 negative) associated with prior Withaferin A exposure.

Experiment [1] concerns minimal heat shock response element derived from the promoter region of the Hsp70B gene. Nature of the experiment: Heat shock reporter (EGFP) induction. In kind it is cell-based. The conditions noted are these: overnight exposure, FIG. 8. As for the experimental part: FIG. 8. Heat shock reporter induction measured by micro plate fluorimeter. Reporter cells stably transduced with a plasmid encoding enhanced green fluorescent protein (EGFP) under the control of a minimal heat shock response element were exposed to 2,3-dihydrowithaferin A-3β-O-sulfate (WA-SO4) or withaferin A (WA) at the indicated concentrations overnight. Relative fluorescence units (RFU) per well were determined as a measure of reporter activation. Each point represents the mean of nine determinations from three independent experiments.
Immortalized mouse embryo fibroblasts derived from homozygous Hsf1 knockout mice or their wild type littermates were exposed overnight to equitoxic concentrations of 1 or the known heat shock-inducing Hsp90 inhibitor gendanamycin. Whole cell lysates were prepared in non-ionic detergent buffer and immunoblotted for relative levels of Hsp72, a highly inducible member of the Hsp70 family of molecular chaperones, using monoclonal antibody C92F3A-5 (StressMarq Biosciences, Victoria, BC). Reactivity was detected using peroxidase-conjugated secondary antibody and chemiluminescent detection. To evaluate the relative ability of compounds to induce a heat shock response at the transcriptional level, a reporter cell line was used as previously described (Turbyville, et al., J. Nat. Prod. (2006) 69: 178-184, incorporated herein by reference). […]

These results are taken from patent publication US20170066797A1, “WITHAFERIN A ANALOGS AND USES THEREOF” (Whitehead Institute for Biomedical Research, priority 2008, published 2017).

Turning to `CC1=C(CO)C(=O)OC([C@@H](C)C2CCC3C4C[C@H]5O[C@]56[C@@H](O)C=CC(=O)[C@]6(C)C4CC[C@@]32C)C1` (stereo partly drawn) [Withaferin A], the “heat shock response induction in brain” value in the experiment with Hsp72, Hsp27 (annexin II absent) is on record as “not in brain cells”. In addition, the “heat shock response induction in spleen” value in the experiment on Hsp72, Hsp27 (annexin II present) is reported as “induces the heat shock response in spleen cells”. For the same compound, the “heat shock reporter induction” value in experiment [1] was “response can be induced at compound exposures compatible with cell survival”.
